Source: patent US20240108738A1, “BICYCLIC PEPTIDE LIGANDS SPECIFIC FOR NK CELLS” (Bicycle Tx Limited, priority 2021, published 2024)
Like-named read-outs stand apart in the source and are kept apart here. Numbered stars: 1 amine (or outer) side, 2 acyl side, 3 side chain; on linkers, the order of the positions; unused ones are H or OH. Bridge positions count the residues as written; N and C are the ends. Square brackets hold non-standard residues; d marks the D form. Peptide text beside a SMILES is read from it. * marks the point of attachment. TATA = O=C(CC[*:1])N1CN(C(=O)CC[*:2])CN(C(=O)CC[*:3])C1; Biotin = O=C1N[C@H]2[C@H](CS[C@H]2CCCCC(=O)*)N1; X1 = C(c1nc(C[*:2])nc(C[*:3])n1)[*:1]; Cba = N[C@@H](CC1CCC1)C(=O)O; Sar = CNCC(=O)O

Key:
[1] = target: T1, Fc-tagged human NKp46 (Homo sapiens, UniProt O76036); assay: NKp46 SPR assay (Method 1 and/or Method 2); type: binding; conditions: SPR Method 1 and/or Method 2, Table 3B
T1 construct: purchased ACROBiosystems NC1-H5257
In short: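 Method 1: biotinylated Avi-tag NKp46-Fc on streptavidin chip, peptides to 100-5000 nM top in PBS/0.05% Tween 20, 0.5% DMSO; 1:1 kinetic fit with mass transport. Method 2: NKp46-Fc captured by anti-Fc, PBS-P+ 2% DMSO; steady-state or kinetic 1:1 fit. Both 25° C, 50 μl/min, 60 s association.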

[2] = target: T2, human NKp46-his tagged protein (Homo sapiens, UniProt O76036); assay: NKp46 Fluorescence Polarization (FP) competition binding assay, tracer BCY15035
T2 construct: His tag; purchased AcroBiosystems

[3] = target: CD16a (V Variant) (Homo sapiens, UniProt P08637, F176V); assay: FcγRIII (CD16a) SPR (Method A and/or Method B), V variant; type: binding
[4] = target: CD16a (F Variant) (Homo sapiens, UniProt P08637); assay: FcγRIII (CD16a) SPR (Method A and/or Method B), F variant; type: binding
[5] = SPR Method A and/or B, Table 6B, read-out: Kd (nM) (V Variant)
[6] = SPR Method A and/or B, Table 6B, read-out: Kd (nM) (F Variant)

T2 sequence (O76036 22-304): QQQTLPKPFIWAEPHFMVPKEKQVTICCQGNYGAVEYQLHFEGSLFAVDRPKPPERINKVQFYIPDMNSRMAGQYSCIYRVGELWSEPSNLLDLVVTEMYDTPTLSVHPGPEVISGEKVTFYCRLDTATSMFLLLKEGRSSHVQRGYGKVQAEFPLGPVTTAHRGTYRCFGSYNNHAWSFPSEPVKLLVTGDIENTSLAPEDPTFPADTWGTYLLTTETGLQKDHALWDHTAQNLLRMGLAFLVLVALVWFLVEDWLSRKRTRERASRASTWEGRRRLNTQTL
Sequence of CD16a (V Variant) (P08637 17-208 F176V): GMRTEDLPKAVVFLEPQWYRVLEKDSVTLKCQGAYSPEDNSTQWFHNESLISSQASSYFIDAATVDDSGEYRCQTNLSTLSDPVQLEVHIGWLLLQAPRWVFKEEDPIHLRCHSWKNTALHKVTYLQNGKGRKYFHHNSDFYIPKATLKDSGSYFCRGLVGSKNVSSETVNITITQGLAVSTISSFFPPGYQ
T1 sequence (O76036 22-304): as the sequence (O76036 22-304) above

Row | Kd [3, 5] | Kd [4, 6] | SMILES | also measured
1 | – | – | CC(C)C[C@@H]1NC(=O)[C@H](Cc2ccc(O)cc2)NC(=O)[C@H](CC(=O)O)NC(=O)[C@@H]2CCCN2C(=O)[C@H](CC(C)C)NC(=O)[C@H](Cc2ccc(O)cc2)NC(=O)[C@@H](NC(=O)[C@H](C)N)CSCCC(=O)N2CN3CN(C2)C(=O)CCSC[C@H](NC1=O)C(=O)N[C@H](C)C(=O)N[C@@H](CC(=O)O)C(=O)N[C@@H](CCC(=O)O)C(=O)N[C@@H](Cc1ccc(O)cc1)C(=O)N[C@H](C(=O)N[C@@H](C)C(N)=O)CSCCC3=O [BCY15650, A-(SEQ ID NO: 26)-A] (H-ACYLPDYLC[dA]DEYCA-NH2; linker 2-9-14 via TATA; N-terminus assumed) | Kd [1]: 10 ± 3 nM; Ki [2]: 16 nM
2 | 832 nM | 3610 nM | CC(C)C[C@@H]1NC(=O)[C@@H]2CCCN2C(=O)[C@H](Cc2c[nH]cn2)NC(=O)[C@@H]2CSCCC(=O)N3CN(CN(C3)C(=O)CCSC[C@H](NC(=O)[C@H](C)N)C(=O)N3CCC[C@H]3C(=O)N3CCC[C@H]3C(=O)N[C@@H](CCC(=O)O)C(=O)N[C@@H](C(C)C)C(=O)N[C@@H](Cc3ccc(O)cc3)C(=O)N2)C(=O)CCSC[C@@H](C(=O)N[C@@H](C)C(N)=O)NC(=O)[C@H](CC(=O)O)NC1=O [BCY11810, A-(SEQ ID NO: 171)-A] (H-ACPPEVYCHPLDCA-NH2; linker 2-8-13 via TATA) | –
3 | – | – | CC(C)C[C@@H]1NC(=O)[C@H](Cc2ccc(O)cc2)NC(=O)[C@H](CC(=O)O)NC(=O)[C@@H]2CCCN2C(=O)[C@H](CC2CCC2)NC(=O)[C@H](Cc2ccc(O)cc2)NC(=O)[C@@H](NC(=O)[C@H](C)N)CSCCC(=O)N2CN3CN(C2)C(=O)CCSC[C@@H](C(=O)N[C@@H](C)C(N)=O)NC(=O)[C@H](Cc2ccc(O)cc2)NC(=O)[C@H](CCC(=O)O)NC(=O)[C@H](CC(=O)O)NC(=O)CNC(=O)[C@H](CSCCC3=O)NC1=O [BCY15639, A-(SEQ ID NO: 16)-A] (H-ACY[Cba]PDYLCGDEYCA-NH2; linker 2-9-14 via TATA) | Ki [2]: 17 nM
4 | – | – | CC(C)[C@@H]1NC(=O)[C@H](CO)NC(=O)[C@H](Cc2c[nH]c3ccccc23)NC(=O)[C@H](CCCNC(=N)N)NC(=O)[C@@H](NC(=O)[C@H](C)N)CSCc2nc3nc(n2)CSC[C@H](NC(=O)[C@@H]2CCCN2C(=O)[C@H](CC(=O)O)NC(=O)[C@H](CCC(=O)O)NC1=O)C(=O)N[C@H](C)C(=O)N[C@@H](C)C(=O)N[C@@H](Cc1c[nH]c2ccccc12)C(=O)N[C@H](C(=O)N[C@@H](C)C(N)=O)CSC3 [BCY14956, A-(SEQ ID NO: 178)-A] (H-ACRWSVEDPC[dA]AWCA-NH2; linker 2-10-14 via X1; N-terminus assumed) | Kd [3]: 2150 nM
5 | – | – | CC(C)C[C@@H]1NC(=O)[C@H](Cc2ccc(O)cc2)NC(=O)[C@@H](NC(=O)[C@H](C)N)CSCCC(=O)N2CN3CN(C2)C(=O)CCSC[C@@H](C(=O)N[C@@H](C)C(N)=O)NC(=O)[C@H](Cc2ccc(O)cc2)NC(=O)[C@H](CCC(=O)O)NC(=O)[C@H](CC(=O)O)NC(=O)CNC(=O)[C@H](CSCCC3=O)NC(=O)[C@H](CC(C)(C)C)NC(=O)[C@H](Cc2c[nH]c3ccccc23)NC(=O)[C@H](CC(=O)O)NC(=O)[C@@H]2CCCN2C1=O [BCY15648, A-(SEQ ID NO: 24)-A] | Ki [2]: 1620 nM
6 | 3310 nM | 17100 nM | CC(C)C[C@@H]1NC(=O)[C@@H]2CCCN2C(=O)[C@H](Cc2c[nH]cn2)NC(=O)[C@@H]2CSCCC(=O)N3CN(CN(C3)C(=O)CCSC[C@H](NC(=O)[C@H](C)N)C(=O)N3CCC[C@H]3C(=O)N3CCC[C@H]3C(=O)N[C@@H](C)C(=O)N[C@@H](C(C)C)C(=O)N[C@@H](Cc3ccc(O)cc3)C(=O)N2)C(=O)CCSC[C@@H](C(=O)N[C@@H](C)C(N)=O)NC(=O)[C@H](CC(=O)O)NC1=O [BCY11673, A-(SEQ ID NO: 169)-A] (H-ACPPAVYCHPLDCA-NH2; linker 2-8-13 via TATA; C-terminus assumed) | –
7 | 1230 nM | 8240 nM | CC(C)C[C@@H]1NC(=O)[C@@H]2CCCN2C(=O)[C@H](Cc2c[nH]cn2)NC(=O)[C@@H]2CSCCC(=O)N3CN(CN(C3)C(=O)CCSC[C@H](NC(=O)[C@H](C)N)C(=O)N3CCC[C@H]3C(=O)N3CCC[C@H]3C(=O)N[C@@H](CCC(=O)O)C(=O)N[C@@H](C(C)C)C(=O)N[C@@H](Cc3c[nH]c4ccccc34)C(=O)N2)C(=O)CCSC[C@@H](C(=O)N[C@@H](C)C(N)=O)NC(=O)[C@H](CC(=O)O)NC1=O [BCY11811, A-(SEQ ID NO: 172)-A] (H-ACPPEVWCHPLDCA-NH2; linker 2-8-13 via TATA) | –
8 | 2400 nM | 11800 nM | CC(C)C[C@@H]1NC(=O)[C@@H]2CCCN2C(=O)[C@H](Cc2c[nH]cn2)NC(=O)[C@@H]2CSCCC(=O)N3CN(CN(C3)C(=O)CCSC[C@H](NC(=O)[C@H](C)N)C(=O)N3CCC[C@H]3C(=O)N3CCC[C@H]3C(=O)N[C@@H](CCC(N)=O)C(=O)N[C@@H](C(C)C)C(=O)N[C@@H](Cc3ccc(O)cc3)C(=O)N2)C(=O)CCSC[C@@H](C(=O)N[C@@H](C)C(N)=O)NC(=O)[C@H](CC(=O)O)NC1=O [BCY11812, A-(SEQ ID NO: 173)-A] (H-ACPPQVYCHPLDCA-NH2; linker 2-8-13 via TATA; C-terminus assumed) | –
9 | – | – | CC(C)C[C@@H]1NC(=O)CNC(=O)[C@H](C(C)C)NC(=O)[C@@H](N)CSCc2nc3nc(n2)CSC[C@H](NC(=O)[C@@H]2CCCN2C(=O)CNC(=O)[C@H](CC(C)C)NC(=O)[C@H](CCC(=O)O)NC(=O)[C@H](CCC(=O)O)NC1=O)C(=O)N[C@@H](CO)C(=O)N[C@@H](CC(=O)O)C(=O)N[C@@H](CC(C)C)C(=O)N[C@H](C(N)=O)CSC3 [BCY16494, (SEQ ID NO: 62)] | Kd [3]: 2820 nM; Kd [4]: 2870 nM
10 | 4330 nM | 28600 nM | CC(C)C[C@@H]1NC(=O)[C@@H]2CCCN2C(=O)[C@H](Cc2c[nH]cn2)NC(=O)[C@@H]2CSCCC(=O)N3CN(CN(C3)C(=O)CCSC[C@H](NC(=O)[C@H](C)N)C(=O)N3CCC[C@H]3C(=O)N3CCC[C@H]3C(=O)N[C@@H](CCC(=O)O)C(=O)N[C@@H](C(C)C)C(=O)N[C@@H](Cc3ccccc3)C(=O)N2)C(=O)CCSC[C@@H](C(=O)N[C@@H](C)C(N)=O)NC(=O)[C@H](CC(=O)O)NC1=O [BCY11809, A-(SEQ ID NO: 170)-A] (H-ACPPEVFCHPLDCA-NH2; linker 2-8-13 via TATA; N-terminus and C-terminus assumed) | –
11 | – | – | C[C@H](N)C(=O)N[C@H]1CSCc2nc3nc(n2)CSC[C@H](NC(=O)[C@@H]2CCCN2C(=O)[C@H](CCC(=O)O)NC(=O)[C@H](CO)NC(=O)[C@@H]2CCN2C(=O)[C@H](Cc2c[nH]cn2)NC(=O)[C@H](Cc2c[nH]c4ccccc24)NC(=O)[C@H](CCCNC(=N)N)NC1=O)C(=O)NCC(=O)N[C@@H](C)C(=O)N[C@@H](Cc1c[nH]c2ccccc12)C(=O)N[C@H](C(=O)N[C@@H](C)C(N)=O)CSC3 [BCY20382, A-(SEQ ID NO: 227)-A] | Kd [4]: 385 nM
12 | 1900 nM | – | CC(C)C[C@@H]1NC(=O)[C@@H]2CCCN2C(=O)[C@H](Cc2c[nH]cn2)NC(=O)[C@@H]2CSCCC(=O)N3CN(CN(C3)C(=O)CCSC[C@H](NC(=O)[C@H](C)N)C(=O)N3CCC[C@H]3C(=O)N3CCC[C@H]3C(=O)N[C@@H]([C@@H](C)O)C(=O)N[C@@H](C(C)C)C(=O)N[C@@H](Cc3ccc(O)cc3)C(=O)N2)C(=O)CCSC[C@@H](C(=O)N[C@@H](C)C(=O)N(C)CC(=O)N(C)CC(=O)N(C)CC(=O)N(C)CC(=O)N(C)CC(=O)N(C)CC(=O)N[C@@H](CCCCNC(=O)CCCC[C@@H]2SC[C@@H]3NC(=O)N[C@@H]32)C(N)=O)NC(=O)[C@H](CC(=O)O)NC1=O [BCY12621, A-(SEQ ID NO: 60)-A-[Sar6]-[KBiot]] | –
13 | 4000 nM | 1000 nM | CC(C)C[C@@H]1NC(=O)[C@@H]2CCCN2C(=O)[C@H](Cc2c[nH]cn2)NC(=O)[C@@H]2CSCCC(=O)N3CN(CN(C3)C(=O)CCSC[C@H](NC(=O)[C@H](C)N)C(=O)N3CCC[C@H]3C(=O)N3CCC[C@H]3C(=O)N[C@@H](CCC(=O)O)C(=O)N[C@@H](C(C)C)C(=O)N[C@@H](Cc3c[nH]c4ccccc34)C(=O)N2)C(=O)CCSC[C@@H](C(=O)N[C@@H](C)C(=O)N(C)CC(=O)N(C)CC(=O)N(C)CC(=O)N(C)CC(=O)N(C)CC(=O)N(C)CC(=O)N[C@@H](CCCCNC(=O)CCCC[C@@H]2SC[C@@H]3NC(=O)N[C@@H]32)C(N)=O)NC(=O)[C@H](CC(=O)O)NC1=O [BCY12622, A-(SEQ ID NO: 174)-A-[Sar6]-[KBiot]] (H-ACPPEVWCHPLDCA[Sar][Sar][Sar][Sar][Sar][Sar]K(Biotin)-NH2; linker 2-8-13 via TATA; N-terminus assumed) | –
14 | – | – | C[C@H](N)C(=O)N[C@H]1CSCc2nc3nc(n2)CSC[C@H](NC(=O)[C@@H]2CCCN2C(=O)[C@H](CCC(=O)O)NC(=O)[C@H](CO)NC(=O)[C@H](Cc2ccccc2)NC(=O)[C@H](Cc2c[nH]cn2)NC(=O)[C@H](Cc2c[nH]c4ccccc24)NC(=O)[C@H](CCCNC(=N)N)NC1=O)C(=O)N[C@H](C)C(=O)N[C@@H](C)C(=O)N[C@@H](Cc1c[nH]c2ccccc12)C(=O)N[C@H](C(=O)N[C@@H](C)C(N)=O)CSC3 [BCY20392, A-(SEQ ID NO: 235)-A] (H-ACRWHFSEPC[dA]AWCA-NH2; linker 2-10-14 via X1; C-terminus assumed) | Kd [3]: 385 nM
15 | – | – | CC(=O)N[C@H]1CSCCC(=O)N2CN3CN(C2)C(=O)CCSC[C@H](NC(=O)[C@H](CC(C)C)NC(=O)[C@H](Cc2ccc(O)cc2)NC(=O)[C@H](CC(=O)O)NC(=O)[C@@H]2CCCN2C(=O)[C@H](CC2CCC2)NC(=O)[C@H](Cc2ccc(O)cc2)NC1=O)C(=O)N[C@H](C)C(=O)N[C@@H](CC(=O)O)C(=O)N[C@@H](CCC(=O)O)C(=O)N[C@@H](Cc1ccc(O)cc1)C(=O)N[C@H](C(N)=O)CSCCC3=O [BCY16133, Ac-(SEQ ID NO: 40)] (Ac-CY[Cba]PDYLC[dA]DEYC-NH2; linker 1-8-13 via TATA; C-terminus assumed) | Ki [2]: 10 nM
